Experimental findings from patent EP0528699B1, “Saishin N derivatives, process for their preparation and anti-ulcer agents containing them” (TOKYO TANABE COMPANY LIMITED, priority 1991, dated 1993) are described below.

Molecules are shown by their SMILES.

The subject of the test is Hydrochloric acid-Ethanol-Induced Ulcers. Nature of the test: Hydrochloric acid-Ethanol-Induced Ulcers. The class given is in vivo, male Wister rats. The following applies: Rattus norvegicus, intraduodenal, 3 h, Table 1; dose 20 mg/kg intraduodenally three hours before hydrochloric acid - 60% ethanol; read-out: Inhibition ratio(%). The method, then: Experiments on Hydrochloric acid-Ethanol-Induced Ulcers, Aspirin-Induced Ulcers, Water-Immersion stress-Induced Ulcers, Shay's Ulcers and Serotonin-Induced Ulcers were carried out using male Wister rats weighing about 200g in groups of six. Experiments on Ischemia-Reperfusion -Induced Gastric Lesions were carried out using male SD rats weighing about 250g in groups of six. Other than for the tests on Ischemia-Reperfusion-Induced Gastric Lesions Models, the test compounds were prepared by mixing thoroughly with polyethyleneglycol and 0.5% sodium carboxymethyl cellulose solution and emulsifying vigorously. Activities against respective ulcer models were evaluated by an inhibiting ratio obtained by dividing the difference between the ulceration indexes of the non-administered group and the test compound group by the non-administered group.
To each rat which had been fasted for 24 hours was orally administered 0.5ml of a mixed solution of 150 mM hydrochloric acid - 60% ethanol per 100g of weight. Each rat was slaughtered after one hour, a length of ulcer formed at the fundus gland area of stomach was measured and ulceration index was calculated based on the length. The test compound was administered intraduodenally one hour or three hours before the administration of mixed solution of hydrochloric acid - 60% ethanol.

`CC1=CC(OC(=O)c2cccc([N+](=O)[O-])c2)C(O)C(C)(C)CC1=O` (centres unmarked) [AU200, 5-hydroxy-4-(3-nitrobenzoyloxy)-2,6,6-trimethyl-2-cyclohepten-1-one]: the inhibition in vivo at 20 mg/kg came out at 50%.
For the compound `CC1=CC(OC(=O)C=Cc2ccccc2)C(O)C(C)(C)CC1=O` (centres unmarked) [AU206, 4-cinnamoyloxy-5-hydroxy-2,6,6-trimethyl-2-cyclohepten-1-one], the inhibition in vivo at 20 mg/kg was determined as 72%.
With `CC(=O)OC1C=C(C)C(=O)CC(C)(C)C1OC(=O)C=Cc1ccccc1` (centres unmarked) [AU207, 4-acetoxy-5-cinnamoyloxy-2,6,6-trimethyl-2-cyclohepten-1-one], the inhibition in vivo at 20 mg/kg worked out at 56%.
The same measure for `CC(=O)OC1C(OC(=O)C=Cc2ccccc2)C=C(C)C(=O)CC1(C)C` (centres unmarked) [AU208, 5-acetoxy-4-cinnamoyloxy-2,6,6-trimethyl-2-cyclohepten-1-one]: 39%; for `CC1=CC(O)C(OC(=O)c2cccc(N)c2)C(C)(C)CC1=O` (centres unmarked) [AU209, 5-(3-aminobenzoyloxy)-4-hydroxy-2,6,6-trimethyl-2-cyclohepten-1-one]: 38%.
Take `CC1=CC(OC(=O)c2cccc(N)c2)C(O)C(C)(C)CC1=O` (centres unmarked) [AU210, 4-(3-aminobenzoyloxy)-5-hydroxy-2,6,6-trimethyl-2-cyclohepten-1-one]: the inhibition in vivo at 20 mg/kg worked out at 26%.
For `CC1=CC(O)C(OC(=O)c2ccc([N+](=O)[O-])cc2)C(C)(C)CC1=O` (centres unmarked) [AU211, 4-hydroxy-5-(4-nitrobenzoyloxy)-2,6,6-trimethyl-2-cyclohepten-1-one], the inhibition in vivo at 20 mg/kg is 38%.
Regarding `CC1=CC(O)C(OC(=O)c2ccc(N)cc2)C(C)(C)CC1=O` (centres unmarked) [AU216, 5-(4-aminobenzoyloxy)-4-hydroxy-2,6,6-trimethyl-2-cyclohepten-1-one], the inhibition in vivo at 20 mg/kg is 23%.
Consider `CC(=O)Oc1ccc(C(=O)OC2C=C(C)C(=O)CC(C)(C)C2O)cc1` (centres unmarked) [AU217, 4-(4-acetoxybenzoyloxy)-5-hydroxy-2,6,6-trimethyl-2-cyclohepten-1-one], for which the inhibition in vivo at 20 mg/kg was 48%.
`COC1C=C(C)C(=O)CC(C)(C)C1OC(=O)c1ccccc1C(=O)O` (centres unmarked) [AU218, 5-(2-carboxybenzoyloxy)-4-methoxy-2,6,6-trimethyl-2-cyclohepten-1-one]: the inhibition in vivo at 20 mg/kg came out at 34%.
The same measure for `CC1=CC(OC(=O)c2ccc([N+](=O)[O-])cc2Cl)C(O)C(C)(C)CC1=O` (centres unmarked) [AU219, 4-(2-chloro-4-nitrobenzoyloxy)-5-hydroxy-2,6,6-trimethyl-2-cyclohepten-1-one]: 60%.
Turning to `COC1C(OC(=O)c2ccccc2)C=C(C)C(=O)CC1(C)C` (centres unmarked) [AU223, 4-benzoyloxy-5-methoxy-2,6,6-trimethyl-2-cyclohepten-1-one], the inhibition in vivo at 20 mg/kg came out at 49%.
The same measure for `CC(=O)Nc1cccc(C(=O)OC2C(OC(C)=O)C=C(C)C(=O)CC2(C)C)c1` (centres unmarked) [AU224, 5-(3-acetamidobenzoyloxy)-4-acetoxy-2,6,6-trimethyl-2-cyclohepten-1-one]: 47%.
The same measure for `CC1=CC(=O)C(OC(=O)c2ccccc2)C(C)(C)CC1=O` (centres unmarked) [AU225, 5-benzoyloxy-2,6,6-trimethyl-2-cyclohepten-1,4-dione]: 36%; for `COC1C(O)C=C(C)C(OC(=O)c2ccccc2)CC1(C)C` (centres unmarked) [AU227, 1-benzoyloxy-5-methoxy-2,6,6-trimethyl-2-cyclohepten-4-ol]: 47%; for `CC1=CC(OC(=O)c2ccc(N(C)C)cc2)C(O)C(C)(C)CC1=O` (centres unmarked) [AU236, 4-(4-dimethylaminobenzoyloxy)-5-hydroxy-2,6,6-trimethyl-2-cyclohepten-1-one]: 45%.
`CC(=O)Nc1ccc(C(=O)OC2C=C(C)C(=O)CC(C)(C)C2O)cc1` (centres unmarked) [AU237, 4-(4-acetamidobenzoyloxy)-5-hydroxy-2,6,6-trimethyl-2-cyclohepten-1-one]: the inhibition in vivo at 20 mg/kg amounted to 30%.
